Molecules are shown by their SMILES.

Data on 1 compound can be found in patent US20160159778A1, “NOVEL UREIDO DERIVATIVES OF NAPHTHALENESULFONIC ACIDS” (NeED PHARMACEUTICALS S.r.l., priority 2013, published 2016).

Assay type in all cases: cell-based
The test system of assay [1] is HIV-1 Bal (strain using CCR5). Description: HIV-1 Bal replication in PHA-activated peripheral blood mononuclear cells (p24 in supernatant). As to conditions: PBMC. The procedure:
(§1) The compound (VII) has been tested for its ability to modulate the viral replication of HIV-1, both of a strain using CXCR4 (IIIB) and a strain using CCR5 (Bal) as co-receptor, in addition to the primary receptor CD4.
(§2) For the in-vitro infections primary cells have been used, specifically peripheral blood mononuclear cells from healthy donors pre-activated for 48 hours through a mitogenic stimulus (phytohemagglutinin) to allow for the infection by HIV-1. The cells have been incubated with IIIB and Bal viruses in absence or in presence of scalar concentrations of compound (VII) for 30 minutes at 37° C., then they have been washed to remove the excess virus, plated in triplicate in culture microplates and the compound VII has been re-added to the wells, in the test concentrations. The control culture has been set up in presence of dimethylsulfoxyde (DMSO), the compound in which the compound VII has been dissolved, in order to more correctly evaluate a net effect of the compound. The viral replication has been evaluated by measuring the structural protein of HIV-1 p24 (expressed in ng/ml) by an immune-enzymatic test carried out on the culture supernatants harvested on days 4 and 7 post-infection.
(§3) The graphs show the mean values of the culture triplicate with the standard deviation on post-infection days 4 and 7.

In assay [2] the test system is fusion mediated by gp120 of HIV-1 using CXCR4. Description: gp120-mediated cell-cell fusion assay, target cells with CD4 and CXCR4 (colorimetric, OD 570 nm). The text has this: (§4) In order to evaluate on which step of the complex HIV-1 replication cycle the compound VII acts according to the present invention, a sophisticated method, schematized in FIG. 2, has been used, specifically only focusing on the entry step of HIV-1 in target cells.
(§5) Briefly, a colorimetric reaction is developed when two populations of properly engineered cells meet and in particular a donor, carrying on the surface the glycoprotein of HIV-1 gp120 and a target, together with the primary receptor CD4 and with one of the co-receptors, CXCR4 or CCR5. In this case there is a fusion of the cells and the polymerase T7 can pass from the donor cell to the target one in which it triggers the transcription of beta-galactosidase with subsequent protein translation. Thus the latter is able to perform its enzymatic action in the presence of the convenient substrate (CPRG, chlorophenol red-3-D galactopyranoside) developing a colorimetric reaction measured by detection of optical density (OD) at 570 nm.
(§6) In the first one, the target cells are mouse fibroblasts (3T3 in FIG. 3 A/B), on the contrary in the second one the target cells are human epithelial cells (HeLa, in FIG. 3 C/D). The graphs show the mean values of the culture triplicate with the standard deviation.

Assay [3] relates to HIV-1 IIIB (strain using CXCR4). Briefly: HIV-1 IIIB replication in PHA-activated peripheral blood mononuclear cells (p24 in supernatant). The note with it: for inhibition of replication of HIV-1 IIIB: PBMC. The procedure: as §1, §2, §3
Assay [4] relates to fusion mediated by gp120 of HIV-1 using CCR5. Description: gp120-mediated cell-cell fusion assay, target cells with CD4 and CCR5 (colorimetric, OD 570 nm). The note with it: target cells 3T3 mouse fibroblasts and HeLa human epithelial cells (FIG. 3 B/D).
Description: as §4, §5, §6

Setting [5] is: 0.1 μM, p24 on days 4 and 7 post-infection (FIG. 1C/D).
[6] abbreviates: 1 μM, p24 on days 4 and 7 post-infection (FIG. 1C/D).
The mark [7] stands for this setting: 30, 10 and 3 μM, p24 on days 4 and 7 post-infection (FIG. 1A/B).

On to `Cn1cc(NC(=O)c2cc3cc(NC(=O)Nc4ccc5c(c4)cc(C(=O)Nc4cc(C(=O)Nc6ccc7cc(S(=O)(=O)O)cc(S(=O)(=O)O)c7c6)n(C)c4)n5C)ccc3n2C)cc1C(=O)Nc1ccc2cc(S(=O)(=O)O)cc(S(=O)(=O)O)c2c1` [compound (VII)], for which the “inhibition of replication of HIV-1 Bal” value in assay [1] (setting [5]) is on record as “not more effective”; in assay [1] (setting [6]), “almost totally lost the inhibitory ability”; in assay [1] (setting [7]), “completely inhibited”. Besides, in assay [2] (comparison of CXCR4 (the latter) with CCR5), the “relative potency in fusion inhibition, HIV-1 using CXCR4 versus HIV-1 using CCR5” value is recorded as “more potent against the latter”. In assay [2] (target cells 3T3 mouse fibroblasts and HeLa human epithelial cells (FIG. 3 A/C)), the “inhibition of fusion mediated by gp120 of HIV-1 using CXCR4” value is listed as “able to inhibit, in a way depending on the concentration”. Further, the “inhibition of replication of HIV-1 IIIB” value in assay [3] (setting [5]) is on record as “not more effective”; in assay [3] (setting [6]), “inhibited completely”; in assay [3] (setting [7]) it was “completely inhibited”. Besides, the “relative effectiveness in replication inhibition, CXCR4-using versus CCR5-using virus” value in assay [3] (comparison of IIIB with Bal at 1 μM) is “higher effectiveness of the compound against viruses using the chemokine receptor CXCR4”. In assay [4], the “inhibition of fusion mediated by gp120 of HIV-1 using CCR5” value was “able to inhibit, in a way depending on the concentration”.
